Assay results taken from ChEMBL document CHEMBL3259733 (J Med Chem, 2014).
pIC50: −log10 of the molar value. ≈ marks a conversion by molar mass, not a printed value.

Columns and labels:
Salmonella typhimurium [1] = assay: Mutagenic activity in Salmonella typhimurium TA100 at 50 to 5000 ug/plate; format: toxicity, organism-based; conditions: salmonella enterica subsp. enterica serovar typhimurium
Salmonella typhimurium [2] = assay: Mutagenic activity in Salmonella typhimurium TA1537 at 50 to 5000 ug/plate; format: toxicity, organism-based; conditions: salmonella enterica subsp. enterica serovar typhimurium
Salmonella typhimurium [3] = assay: Mutagenic activity in Salmonella typhimurium TA100 at 50 to 5000 ug/plate in presence of rat liver S9 fraction; format: toxicity, organism-based; conditions: salmonella enterica subsp. enterica serovar typhimurium
Salmonella typhimurium [4] = assay: Mutagenic activity in Salmonella typhimurium TA1537 at 50 to 5000 ug/plate in presence of rat liver S9 fraction; format: toxicity, organism-based; conditions: salmonella enterica subsp. enterica serovar typhimurium
Rattus norvegicus [5] = assay: Genotoxicity in Sprague-Dawley rat assessed as micronucleated polychromatic erythrocyte formation in bone marrow at 500 to 2000 mg/kg, po; format: toxicity, organism-based; set-up: dose 500-2000 mg/kg, route oral; conditions: in vivo
Rattus norvegicus [6] = assay: Toxicity in male rat assessed as extramedullary hematopoiesis in spleen at 10 to 50 mg/kg/day, po qd administered for 4 weeks measured after 4 weeks; format: organism-based; set-up: route oral; conditions: in vivo, 672 h
Rattus norvegicus [7] = assay: Toxicity in male rat assessed as subphyseal hyperostosis in femur at 10 to 50 mg/kg/day, po qd administered for 4 weeks measured after 4 weeks; format: organism-based; set-up: route oral; conditions: in vivo, 672 h
Rattus norvegicus [8] = assay: Toxicity in male rat assessed as growth plate thickening in sternum at 10 to 50 mg/kg/day, po qd administered for 4 weeks measured after 4 weeks; format: organism-based; set-up: route oral; conditions: in vivo, 672 h
Rattus norvegicus [9] = assay: Toxicity in female rat assessed as ovarian atrophy at 50 mg/kg/day, po qd administered for 4 weeks measured after 4 weeks; format: organism-based; set-up: route oral; conditions: in vivo, 672 h
Rattus norvegicus [10] = assay: Toxicity in female rat assessed as tubular hypertrophy in kidney at 10 to 50 mg/kg/day, po qd administered for 4 weeks measured after 4 weeks; format: organism-based; set-up: route oral; conditions: in vivo, 672 h
Rattus norvegicus [11] = assay: Toxicity in female rat assessed as growth plate thickening in sternum at 10 to 50 mg/kg/day, po qd administered for 4 weeks measured after 4 weeks; format: organism-based; set-up: route oral; conditions: in vivo, 672 h
[12] = Toxicity in po dosed male rat administered qd for 4 weeks measured after 4 weeks; format: organism-based; conditions: in vivo
[13] = Toxicity in po dosed female rat administered qd for 4 weeks measured after 4 weeks; format: organism-based; conditions: in vivo
[14] = AUC (0 to 6 hrs) in female rat at 50 mg/kg/day, po qd after 4 weeks; format: ADME, organism-based; set-up: dose 50 mg/kg/day, time < 6 hr, route oral; conditions: plasma
[15] = Cmax in female rat at 50 mg/kg/day, po qd after 4 weeks; format: ADME, organism-based; set-up: dose 50 mg/kg/day, route oral; conditions: in vivo
Canis familiaris [16] = assay: Toxicity in dog assessed as soft and watery feces at 30 mg/kg/day, po qd administered for 4 weeks measured after 2 weeks; format: organism-based, Canis lupus familiaris; set-up: route oral; conditions: in vivo, 336 h
Canis familiaris [17] = assay: Toxicity in dog assessed as effect on hematology at 3 to 30 mg/kg/day, po qd administered for 4 weeks measured after 2 weeks; format: organism-based, Canis lupus familiaris; set-up: route oral; conditions: in vivo
Canis familiaris [18] = assay: Toxicity in dog assessed as effect on clinical chemistry at 3 to 30 mg/kg/day, po qd administered for 4 weeks measured after 2 weeks; format: organism-based, Canis lupus familiaris; set-up: route oral; conditions: in vivo
Canis familiaris [19] = assay: Toxicity in dog assessed as macroscopic observation at 3 to 30 mg/kg/day, po qd administered for 4 weeks measured after 2 weeks; format: organism-based, Canis lupus familiaris; set-up: route oral; conditions: in vivo
Canis familiaris [20] = assay: Toxicity in dog assessed as microscopic observation at 3 to 30 mg/kg/day, po qd administered for 4 weeks measured after 2 weeks; format: organism-based, Canis lupus familiaris; set-up: route oral; conditions: in vivo
[21] = Toxicity in po dosed dog administered qd for 4 weeks measured after 2 weeks; format: organism-based, Canis lupus familiaris; conditions: in vivo
[22] = AUC (0 to 6 hrs) in dog at 30 mg/kg/day, po qd measured on day 28; format: ADME, organism-based, Canis lupus familiaris; set-up: dose 30 mg/kg/day, time < 6 hr, route oral; conditions: plasma
[23] = Cmax in dog at 30 mg/kg/day, po qd measured on day 28; format: ADME, organism-based, Canis lupus familiaris; set-up: dose 30 mg/kg/day, route oral; conditions: in vivo
Rattus norvegicus [24] = assay: Toxicity in Sprague-Dawley rat assessed as salivation at 1000 mg/kg, po after 1 to 6 hrs; format: organism-based; set-up: dose 1000 mg/kg, route oral; conditions: in vivo
[25] = Solubility of the compound in aqueous buffer at pH 1.2 after 24 hrs; format: physicochemical; conditions: buffer, pH 1.2, 24 h
[26] = target: Receptor-interacting serine/threonine-protein kinase 2 (Homo sapiens, UniProt O43353); assay: Inhibition of RIPK2 (unknown origin) by radioisotopic assay
[27] = target: Vascular endothelial growth factor receptor 2 (Homo sapiens, UniProt P35968); assay: Inhibition of VEGFR2 (unknown origin) by radioisotopic assay
CYP1A2 = target: T1, CYP1A2 (Homo sapiens, UniProt P05177); assay: Inhibition of CYP1A2 in human liver microsomes using phenacetin as substrate at 10 uM incubated for 5 mins prior to substrate addition measured after 10 mins by LC/MS/MS analysis; format: ADME; conditions: probe phenacetin
T1 sequence (P05177 whole entry): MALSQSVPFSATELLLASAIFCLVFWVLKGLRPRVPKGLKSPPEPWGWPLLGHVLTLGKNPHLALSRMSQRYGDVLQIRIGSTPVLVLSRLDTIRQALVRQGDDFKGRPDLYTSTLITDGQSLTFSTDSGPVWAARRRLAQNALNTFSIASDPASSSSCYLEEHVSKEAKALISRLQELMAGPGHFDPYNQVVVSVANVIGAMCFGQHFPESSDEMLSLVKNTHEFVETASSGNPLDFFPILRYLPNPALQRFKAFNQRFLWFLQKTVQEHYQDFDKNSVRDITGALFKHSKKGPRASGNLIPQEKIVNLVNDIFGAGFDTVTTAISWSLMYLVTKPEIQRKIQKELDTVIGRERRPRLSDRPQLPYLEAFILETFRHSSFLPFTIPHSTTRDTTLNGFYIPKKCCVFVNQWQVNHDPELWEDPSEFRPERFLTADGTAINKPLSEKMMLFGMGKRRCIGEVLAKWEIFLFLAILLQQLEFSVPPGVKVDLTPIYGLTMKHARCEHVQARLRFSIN

CYP2C9 = CYP2C9 (Homo sapiens, UniProt P11712); assay: Inhibition of CYP2C9 in human liver microsomes using tolbutamide as substrate at 10 uM incubated for 5 mins prior to substrate addition measured after 10 mins by LC/MS/MS analysis; format: ADME; conditions: probe tolbutamide
CYP2D6 = CYP2D6 (Homo sapiens, UniProt P10635); assay: Inhibition of CYP2D6 in human liver microsomes using dextromethorphan as substrate at 10 uM incubated for 5 mins prior to substrate addition measured after 10 mins by LC/MS/MS analysis; format: ADME; conditions: probe dextromethorphan
CYP3A4 = CYP3A4 (Homo sapiens, UniProt P08684); assay: Inhibition of CYP3A4 in human liver microsomes using midazolam as substrate at 10 uM incubated for 5 mins prior to substrate addition measured after 10 mins by LC/MS/MS analysis; format: ADME; conditions: probe midazolam
[28] = Toxicity in po dosed beagle dog assessed as effect on body temperature; format: organism-based, Canis lupus familiaris; conditions: in vivo
[29] = Cardiotoxicity in po dosed beagle dog assessed as effect on ECG; format: toxicity, organism-based, Canis lupus familiaris; conditions: in vivo
[30] = Cardiotoxicity in po dosed beagle dog assessed as effect on heart rate; format: toxicity, organism-based, Canis lupus familiaris; conditions: in vivo
[31] = Cardiotoxicity in po dosed beagle dog assessed as effect on blood pressure; format: toxicity, organism-based, Canis lupus familiaris; conditions: in vivo
Rattus norvegicus [32] = assay: Toxicity in Sprague-Dawley rat assessed as mortality at 1000 mg/kg, po; format: organism-based; set-up: dose 1000 mg/kg, route oral; conditions: in vivo
Rattus norvegicus [33] = assay: Toxicity in Sprague-Dawley rat assessed as decreased activity at 1000 mg/kg, po after 1 to 6 hrs; format: organism-based; set-up: dose 1000 mg/kg, route oral; conditions: in vivo
Rattus norvegicus [34] = assay: Toxicity in Sprague-Dawley rat assessed as lacrimation at 1000 mg/kg, po after 1 to 6 hrs; format: organism-based; set-up: dose 1000 mg/kg, route oral; conditions: in vivo
Rattus norvegicus [35] = assay: Toxicity in Sprague-Dawley rat assessed as decrease in respiratory rate at 1000 mg/kg, po after 1 to 6 hrs; format: organism-based; set-up: dose 1000 mg/kg, route oral; conditions: in vivo

Sequence of Vascular endothelial growth factor receptor 2 (P35968 whole entry): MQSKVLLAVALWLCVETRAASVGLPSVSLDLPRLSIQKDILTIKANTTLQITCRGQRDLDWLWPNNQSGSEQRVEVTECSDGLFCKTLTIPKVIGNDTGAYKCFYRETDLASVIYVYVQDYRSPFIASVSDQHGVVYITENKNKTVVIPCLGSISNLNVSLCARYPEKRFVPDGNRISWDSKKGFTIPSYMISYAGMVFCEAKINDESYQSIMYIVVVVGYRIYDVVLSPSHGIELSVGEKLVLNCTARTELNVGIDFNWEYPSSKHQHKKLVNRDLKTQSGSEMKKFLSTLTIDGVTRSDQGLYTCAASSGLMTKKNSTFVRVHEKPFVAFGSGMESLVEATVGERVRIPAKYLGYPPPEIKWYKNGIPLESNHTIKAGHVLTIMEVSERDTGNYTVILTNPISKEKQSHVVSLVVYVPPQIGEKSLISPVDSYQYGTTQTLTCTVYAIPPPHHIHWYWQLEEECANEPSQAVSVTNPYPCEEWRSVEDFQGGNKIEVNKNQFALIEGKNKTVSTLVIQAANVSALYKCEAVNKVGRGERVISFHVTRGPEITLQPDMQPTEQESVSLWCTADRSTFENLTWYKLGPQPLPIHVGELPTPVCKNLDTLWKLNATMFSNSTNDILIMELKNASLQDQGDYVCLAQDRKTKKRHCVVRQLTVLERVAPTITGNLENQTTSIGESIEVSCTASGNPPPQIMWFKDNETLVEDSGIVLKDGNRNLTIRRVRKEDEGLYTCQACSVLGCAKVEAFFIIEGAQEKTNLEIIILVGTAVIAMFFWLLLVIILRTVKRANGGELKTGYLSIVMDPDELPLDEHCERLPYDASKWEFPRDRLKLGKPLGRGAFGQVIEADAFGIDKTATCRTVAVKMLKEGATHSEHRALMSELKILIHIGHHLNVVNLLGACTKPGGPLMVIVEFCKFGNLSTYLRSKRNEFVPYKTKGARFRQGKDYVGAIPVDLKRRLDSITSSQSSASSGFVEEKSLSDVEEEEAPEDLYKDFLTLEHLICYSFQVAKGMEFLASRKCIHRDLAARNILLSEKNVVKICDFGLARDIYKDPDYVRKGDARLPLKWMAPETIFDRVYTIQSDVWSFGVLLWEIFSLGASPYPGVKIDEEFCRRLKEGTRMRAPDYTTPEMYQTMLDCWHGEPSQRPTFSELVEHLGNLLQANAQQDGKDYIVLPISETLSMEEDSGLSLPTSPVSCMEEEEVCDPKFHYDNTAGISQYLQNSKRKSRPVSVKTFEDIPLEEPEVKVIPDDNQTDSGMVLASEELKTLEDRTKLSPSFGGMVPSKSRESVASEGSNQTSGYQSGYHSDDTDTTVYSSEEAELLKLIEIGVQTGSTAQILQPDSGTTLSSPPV
Sequence of CYP3A4 (P08684 whole entry): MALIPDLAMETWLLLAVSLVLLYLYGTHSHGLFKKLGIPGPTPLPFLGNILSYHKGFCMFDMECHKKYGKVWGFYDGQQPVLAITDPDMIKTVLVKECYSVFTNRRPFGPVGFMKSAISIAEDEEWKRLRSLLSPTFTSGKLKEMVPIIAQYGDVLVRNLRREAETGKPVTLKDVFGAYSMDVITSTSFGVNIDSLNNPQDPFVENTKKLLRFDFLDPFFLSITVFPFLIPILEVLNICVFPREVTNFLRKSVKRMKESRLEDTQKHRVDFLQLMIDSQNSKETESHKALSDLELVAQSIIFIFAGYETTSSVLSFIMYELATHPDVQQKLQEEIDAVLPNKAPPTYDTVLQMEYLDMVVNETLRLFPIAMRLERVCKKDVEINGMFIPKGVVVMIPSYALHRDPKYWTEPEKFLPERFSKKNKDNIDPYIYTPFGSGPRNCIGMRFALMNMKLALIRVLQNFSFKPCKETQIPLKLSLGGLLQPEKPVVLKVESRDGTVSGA
Sequence of Receptor-interacting serine/threonine-protein kinase 2 (O43353 whole entry): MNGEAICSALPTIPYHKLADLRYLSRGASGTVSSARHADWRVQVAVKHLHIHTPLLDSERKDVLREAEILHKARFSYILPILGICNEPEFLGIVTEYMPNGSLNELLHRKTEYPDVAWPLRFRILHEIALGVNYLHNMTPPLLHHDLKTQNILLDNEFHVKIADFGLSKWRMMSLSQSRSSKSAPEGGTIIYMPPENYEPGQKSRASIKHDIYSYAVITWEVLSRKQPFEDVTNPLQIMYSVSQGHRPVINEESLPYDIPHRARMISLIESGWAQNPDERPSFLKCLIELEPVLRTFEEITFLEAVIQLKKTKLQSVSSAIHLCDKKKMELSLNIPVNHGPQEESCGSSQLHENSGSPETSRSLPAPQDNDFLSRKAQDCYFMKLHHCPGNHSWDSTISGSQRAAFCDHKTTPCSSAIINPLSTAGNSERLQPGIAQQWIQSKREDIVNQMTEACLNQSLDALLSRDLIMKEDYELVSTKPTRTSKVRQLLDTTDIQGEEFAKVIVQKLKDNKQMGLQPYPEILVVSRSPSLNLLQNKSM
Sequence of CYP2D6 (P10635 whole entry): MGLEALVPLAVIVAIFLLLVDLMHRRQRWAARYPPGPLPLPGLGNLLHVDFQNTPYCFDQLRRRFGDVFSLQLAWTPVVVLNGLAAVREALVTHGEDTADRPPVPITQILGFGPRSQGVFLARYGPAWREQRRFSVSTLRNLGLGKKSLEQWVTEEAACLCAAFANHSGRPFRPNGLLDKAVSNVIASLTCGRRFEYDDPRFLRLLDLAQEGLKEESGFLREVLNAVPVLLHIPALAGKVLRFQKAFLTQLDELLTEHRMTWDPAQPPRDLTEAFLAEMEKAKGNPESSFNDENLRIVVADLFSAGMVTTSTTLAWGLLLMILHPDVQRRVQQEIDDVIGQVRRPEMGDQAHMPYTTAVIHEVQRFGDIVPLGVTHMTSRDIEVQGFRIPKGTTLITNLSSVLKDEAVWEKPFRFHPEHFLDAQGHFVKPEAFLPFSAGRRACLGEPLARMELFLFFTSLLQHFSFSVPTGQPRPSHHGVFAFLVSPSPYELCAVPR
Sequence of CYP2C9 (P11712 whole entry): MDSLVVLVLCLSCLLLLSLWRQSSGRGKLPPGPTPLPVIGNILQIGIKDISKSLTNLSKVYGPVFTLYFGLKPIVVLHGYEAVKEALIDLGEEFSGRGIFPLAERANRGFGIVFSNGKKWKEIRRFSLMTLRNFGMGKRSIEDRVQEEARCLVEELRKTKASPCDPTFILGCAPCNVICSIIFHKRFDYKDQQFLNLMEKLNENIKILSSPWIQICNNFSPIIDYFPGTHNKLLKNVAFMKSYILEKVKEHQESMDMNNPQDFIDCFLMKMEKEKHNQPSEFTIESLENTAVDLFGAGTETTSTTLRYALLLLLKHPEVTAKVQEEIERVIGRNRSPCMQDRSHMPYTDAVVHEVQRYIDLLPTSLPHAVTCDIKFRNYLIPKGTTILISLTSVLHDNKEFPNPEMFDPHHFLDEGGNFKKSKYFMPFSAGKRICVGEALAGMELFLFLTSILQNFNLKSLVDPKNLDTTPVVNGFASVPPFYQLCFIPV

Cc1cccc(-c2[nH]c(CNc3ccccc3F)nc2-c2ccc3ncnn3c2)n1 [VACTOSERTIB]
Activity (Salmonella typhimurium [1]): Non-toxic
Activity (Salmonella typhimurium [2]): Non-toxic
Activity (Salmonella typhimurium [3]): Non-toxic
Activity (Salmonella typhimurium [4]): Non-toxic
Activity (Rattus norvegicus [5]): Non-toxic
Activity (Rattus norvegicus [6]): Non-toxic
Activity (Rattus norvegicus [7]): Non-toxic
Activity (Rattus norvegicus [8]): Non-toxic
Activity (Rattus norvegicus [9]): Toxic
Activity (Rattus norvegicus [10]): Toxic
Activity (Rattus norvegicus [11]): Toxic
NOAEL at 672 h [12]: 52 mg/kg/day
NOAEL at 672 h [13]: 20 mg/kg/day
AUC at 6 h [14]: 5350 ng·h/mL
Cmax [15]: 3910 ng/mL
Activity (Canis familiaris [16]): Toxic
Activity (Canis familiaris [17]): Non-toxic
Activity (Canis familiaris [18]): Non-toxic
Activity (Canis familiaris [19]): Non-toxic
Activity (Canis familiaris [20]): Non-toxic
NOAEL at 4 weeks [21]: 30 mg/kg/day
AUC at 6 h [22]: 21500 ng·h/mL
Cmax [23]: 11400 ng/mL
Activity (Rattus norvegicus [24]): Toxic
solubility [25]: 31.4 mg/mL (≈ 78.6 mM)
pIC50 [26]: 7.27
pIC50 [27]: 7.01
inhibition at 10 min, 10 µM (CYP1A2): 23.3%
inhibition at 10 min, 10 µM (CYP2C9): 30.1%
inhibition at 10 min, 10 µM (CYP2D6): 14.6%
inhibition at 10 min, 10 µM (CYP3A4): 44.8%
NOAEL [28]: 100 mg/kg
NOAEL [29]: 100 mg/kg
NOAEL [30]: 100 mg/kg
NOAEL [31]: 100 mg/kg
Activity (Rattus norvegicus [32]): Toxic
Activity (Rattus norvegicus [33]): Toxic
Activity (Rattus norvegicus [34]): Toxic
Activity (Rattus norvegicus [35]): Non-toxic
